pIC50: −log10 of the molar value.
Target: c-Abl (Homo sapiens, UniProt P00519)
Assay: Dose-response inhibition assay, AbAStide time-resolved Tb3+ luminescence
Type: biochemical

Sequence of c-Abl (P00519 whole entry): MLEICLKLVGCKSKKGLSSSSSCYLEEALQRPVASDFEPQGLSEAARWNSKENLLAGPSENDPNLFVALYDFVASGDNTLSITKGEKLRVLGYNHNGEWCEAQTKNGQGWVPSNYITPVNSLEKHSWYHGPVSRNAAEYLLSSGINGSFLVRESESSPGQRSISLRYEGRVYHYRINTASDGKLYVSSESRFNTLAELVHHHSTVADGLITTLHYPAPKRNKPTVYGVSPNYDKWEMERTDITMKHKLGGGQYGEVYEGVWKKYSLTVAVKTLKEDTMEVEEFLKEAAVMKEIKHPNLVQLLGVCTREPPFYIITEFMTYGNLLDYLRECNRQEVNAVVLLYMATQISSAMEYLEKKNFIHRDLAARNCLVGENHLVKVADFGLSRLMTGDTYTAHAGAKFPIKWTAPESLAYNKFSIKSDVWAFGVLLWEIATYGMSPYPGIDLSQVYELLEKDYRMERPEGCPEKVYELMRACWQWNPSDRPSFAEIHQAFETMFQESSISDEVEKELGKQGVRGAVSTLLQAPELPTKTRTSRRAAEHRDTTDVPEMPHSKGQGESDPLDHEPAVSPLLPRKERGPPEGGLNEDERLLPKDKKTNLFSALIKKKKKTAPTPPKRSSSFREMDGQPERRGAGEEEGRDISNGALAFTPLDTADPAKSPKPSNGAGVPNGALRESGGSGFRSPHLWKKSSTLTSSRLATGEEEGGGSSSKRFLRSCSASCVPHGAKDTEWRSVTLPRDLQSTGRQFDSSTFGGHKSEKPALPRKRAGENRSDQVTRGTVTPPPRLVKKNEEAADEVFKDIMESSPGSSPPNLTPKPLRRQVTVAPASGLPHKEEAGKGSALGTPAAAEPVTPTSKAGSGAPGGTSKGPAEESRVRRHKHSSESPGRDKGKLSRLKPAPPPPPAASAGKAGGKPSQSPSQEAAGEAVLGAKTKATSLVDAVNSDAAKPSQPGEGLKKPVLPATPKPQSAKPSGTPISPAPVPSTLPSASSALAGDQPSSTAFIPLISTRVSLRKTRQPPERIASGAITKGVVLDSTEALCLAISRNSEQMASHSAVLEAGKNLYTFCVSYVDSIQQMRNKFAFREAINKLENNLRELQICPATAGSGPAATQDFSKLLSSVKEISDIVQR

COc1cc(C=NNc2ncnc3c2cnn3-c2ccccc2)ccc1O [GW513184X]
pIC50: 9.46

COC(=O)Nc1nc2ccc(Sc3ccc(NC(=O)Nc4cc(C(F)(F)F)ccc4F)cc3)cc2[nH]1 [GW607049C]
inhibition of Abl in dose-response kinase assay (AbAStide biosensor, negative compounds from HTS): no inhibition

COC(=O)Nc1nc2ccc(Oc3ccc(NC(=O)Nc4cc(C(F)(F)F)ccc4F)cc3)cc2s1 [GW693917A]
pIC50: 9.28

c1ccc(-c2n[nH]cc2-c2ccnc(-c3ccc(OCCn4ccnc4)cc3)c2)nc1 [GW711782X]
pIC50: 8.72

From publication PMC4342272 (Journal of the American Chemical Society, 2015)
